Assay results as given in the supplement of paper PMC8671470.

What follows are compounds tested on KCL-22 (assay: cell viability (% survival relative to DMSO control, bortezomib = 0%); higher = less cytotoxic). Details: 1000 nM; 72 h.
Procedure, shortened: (§1)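 In 384-well plates pre-printed with compounds at 1, 10, 100, 1000 or 10000 nM, duplicate wells received cells from 10 AML and 5 CML lines at densities within the linear growth range. The plates stayed at 37 °C with 5% CO2 for 72 h before CellTiter-Glo luminescence was recorded. Each entry is averaged percent survival. Scaling placed vehicle at 100% and a 10 µM positive control at 0%.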
Oc1ccc(Nc2nc(-c3ccc(Cl)cc3)cs2)cc1 [SKI II] was tested, and the cell viability was 92.1%.
In the case of O=C(O)c1cc(N=Nc2ccc(S(=O)(=O)Nc3ccccn3)cc2)ccc1O [Sulfasalazine], the cell viability is reported as 92.9%.

Same assay, conditions: 10000 nM; 72 h
With CCCCN1C[C@H](O)[C@@H](O)[C@H](O)[C@H]1CO [Miglustat] the cell viability was 82.9%.
In the case of C=C(C=NNC(=N)N)NNC(=N)N [Mitoguazone], the cell viability is reported as 42%.
Work on CCCCC/C=C\C/C=C\C/C=C\C/C=C\CCCCN1C(=O)C=CC1=O [N-Arachidonylmaleimide] yielded a cell viability of 95%.
With CCCCCCCCCCC[C@@H](C[C@@H]1OC(=O)[C@H]1CCCCCC)OC(=O)[C@H](CC(C)C)NC=O [Orlistat] the cell viability was 86.9%.
Compound COc1ccc(C(=O)Nc2c(Cl)cncc2Cl)cc1OC1CCCC1 [Piclamilast] has a cell viability of 108%.
COc1cc(/C=C/C(=O)N2CCC=CC2=O)cc(OC)c1OC [Piperlongumine] showed a cell viability of 1.29%.
Compound O=C(NNc1ccccc1)c1ccncc1 [PluriSln 1] has a cell viability of 41.5%.
Work on CC(C)c1nc(CN(C)C(=O)N[C@H](C(=O)N[C@@H](Cc2ccccc2)C[C@H](O)[C@H](Cc2ccccc2)NC(=O)OCc2cncs2)C(C)C)cs1 [Ritonavir] yielded a cell viability of 87.2%.
C=C(C)[C@H]1Cc2c(ccc3c2O[C@@H]2COc4cc(OC)c(OC)cc4[C@@H]2C3=O)O1 [Rotenone] gave a cell viability of 1.21%.
Oc1ccc(Nc2nc(-c3ccc(Cl)cc3)cs2)cc1 [SKI II] gave a cell viability of 25.7%.
With O=C(O)c1cc(N=Nc2ccc(S(=O)(=O)Nc3ccccn3)cc2)ccc1O [Sulfasalazine] the cell viability was 124%.

Each compound was assayed on KG-1 in the same assay as above. Details: 1 nM; 72 h.
Procedure, shortened: as §1
Compound CCCCN1C[C@H](O)[C@@H](O)[C@H](O)[C@H]1CO [Miglustat] has a cell viability of 92.6%.
C=C(C=NNC(=N)N)NNC(=N)N [Mitoguazone] was tested, and the cell viability was 94.9%.
CCCCC/C=C\C/C=C\C/C=C\C/C=C\CCCCN1C(=O)C=CC1=O [N-Arachidonylmaleimide] showed a cell viability of 98.9%.
CCCCCCCCCCC[C@@H](C[C@@H]1OC(=O)[C@H]1CCCCCC)OC(=O)[C@H](CC(C)C)NC=O [Orlistat] gave a cell viability of 96.2%.
With COc1ccc(C(=O)Nc2c(Cl)cncc2Cl)cc1OC1CCCC1 [Piclamilast] the cell viability was 97.7%.
COc1cc(/C=C/C(=O)N2CCC=CC2=O)cc(OC)c1OC [Piperlongumine] gave a cell viability of 98.4%.
O=C(NNc1ccccc1)c1ccncc1 [PluriSln 1] was tested, and the cell viability was 88.5%.
For CC(C)c1nc(CN(C)C(=O)N[C@H](C(=O)N[C@@H](Cc2ccccc2)C[C@H](O)[C@H](Cc2ccccc2)NC(=O)OCc2cncs2)C(C)C)cs1 [Ritonavir], the cell viability was 95.7%.
C=C(C)[C@H]1Cc2c(ccc3c2O[C@@H]2COc4cc(OC)c(OC)cc4[C@@H]2C3=O)O1 [Rotenone] gave a cell viability of 93.6%.
For Oc1ccc(Nc2nc(-c3ccc(Cl)cc3)cs2)cc1 [SKI II], the cell viability was 98%.
O=C(O)c1cc(N=Nc2ccc(S(=O)(=O)Nc3ccccn3)cc2)ccc1O [Sulfasalazine] gave a cell viability of 103%.

Same assay, conditions: 10 nM; 72 h
In the case of CCCCN1C[C@H](O)[C@@H](O)[C@H](O)[C@H]1CO [Miglustat], the cell viability is reported as 102%.
C=C(C=NNC(=N)N)NNC(=N)N [Mitoguazone] gave a cell viability of 97.2%.
Work on CCCCC/C=C\C/C=C\C/C=C\C/C=C\CCCCN1C(=O)C=CC1=O [N-Arachidonylmaleimide] yielded a cell viability of 97.9%.
In the case of CCCCCCCCCCC[C@@H](C[C@@H]1OC(=O)[C@H]1CCCCCC)OC(=O)[C@H](CC(C)C)NC=O [Orlistat], the cell viability is reported as 99.6%.
In the case of COc1ccc(C(=O)Nc2c(Cl)cncc2Cl)cc1OC1CCCC1 [Piclamilast], the cell viability is reported as 102%.
COc1cc(/C=C/C(=O)N2CCC=CC2=O)cc(OC)c1OC [Piperlongumine] showed a cell viability of 102%.
In the case of O=C(NNc1ccccc1)c1ccncc1 [PluriSln 1], the cell viability is reported as 104%.
CC(C)c1nc(CN(C)C(=O)N[C@H](C(=O)N[C@@H](Cc2ccccc2)C[C@H](O)[C@H](Cc2ccccc2)NC(=O)OCc2cncs2)C(C)C)cs1 [Ritonavir] was tested, and the cell viability was 96.8%.
C=C(C)[C@H]1Cc2c(ccc3c2O[C@@H]2COc4cc(OC)c(OC)cc4[C@@H]2C3=O)O1 [Rotenone] was tested, and the cell viability was 83.7%.
Work on Oc1ccc(Nc2nc(-c3ccc(Cl)cc3)cs2)cc1 [SKI II] yielded a cell viability of 103%.
With O=C(O)c1cc(N=Nc2ccc(S(=O)(=O)Nc3ccccn3)cc2)ccc1O [Sulfasalazine] the cell viability was 89%.

Same assay, conditions: 100 nM; 72 h
CCCCN1C[C@H](O)[C@@H](O)[C@H](O)[C@H]1CO [Miglustat] showed a cell viability of 94.8%.
C=C(C=NNC(=N)N)NNC(=N)N [Mitoguazone] was tested, and the cell viability was 103%.
CCCCC/C=C\C/C=C\C/C=C\C/C=C\CCCCN1C(=O)C=CC1=O [N-Arachidonylmaleimide] was tested, and the cell viability was 101%.
CCCCCCCCCCC[C@@H](C[C@@H]1OC(=O)[C@H]1CCCCCC)OC(=O)[C@H](CC(C)C)NC=O [Orlistat] was tested, and the cell viability was 96.4%.
With COc1ccc(C(=O)Nc2c(Cl)cncc2Cl)cc1OC1CCCC1 [Piclamilast] the cell viability was 86%.
COc1cc(/C=C/C(=O)N2CCC=CC2=O)cc(OC)c1OC [Piperlongumine] showed a cell viability of 93.1%.
O=C(NNc1ccccc1)c1ccncc1 [PluriSln 1] showed a cell viability of 102%.
CC(C)c1nc(CN(C)C(=O)N[C@H](C(=O)N[C@@H](Cc2ccccc2)C[C@H](O)[C@H](Cc2ccccc2)NC(=O)OCc2cncs2)C(C)C)cs1 [Ritonavir] gave a cell viability of 108%.
With C=C(C)[C@H]1Cc2c(ccc3c2O[C@@H]2COc4cc(OC)c(OC)cc4[C@@H]2C3=O)O1 [Rotenone] the cell viability was 43.7%.
Work on Oc1ccc(Nc2nc(-c3ccc(Cl)cc3)cs2)cc1 [SKI II] yielded a cell viability of 97.2%.
O=C(O)c1cc(N=Nc2ccc(S(=O)(=O)Nc3ccccn3)cc2)ccc1O [Sulfasalazine] was tested, and the cell viability was 112%.

Same assay, conditions: 1000 nM; 72 h
In the case of CCCCN1C[C@H](O)[C@@H](O)[C@H](O)[C@H]1CO [Miglustat], the cell viability is reported as 103%.
C=C(C=NNC(=N)N)NNC(=N)N [Mitoguazone] showed a cell viability of 84.7%.
CCCCC/C=C\C/C=C\C/C=C\C/C=C\CCCCN1C(=O)C=CC1=O [N-Arachidonylmaleimide] gave a cell viability of 93.1%.
With CCCCCCCCCCC[C@@H](C[C@@H]1OC(=O)[C@H]1CCCCCC)OC(=O)[C@H](CC(C)C)NC=O [Orlistat] the cell viability was 100%.
For COc1ccc(C(=O)Nc2c(Cl)cncc2Cl)cc1OC1CCCC1 [Piclamilast], the cell viability was 99.2%.
For COc1cc(/C=C/C(=O)N2CCC=CC2=O)cc(OC)c1OC [Piperlongumine], the cell viability was 98.3%.
O=C(NNc1ccccc1)c1ccncc1 [PluriSln 1] was tested, and the cell viability was 98.4%.
CC(C)c1nc(CN(C)C(=O)N[C@H](C(=O)N[C@@H](Cc2ccccc2)C[C@H](O)[C@H](Cc2ccccc2)NC(=O)OCc2cncs2)C(C)C)cs1 [Ritonavir] gave a cell viability of 101%.
With C=C(C)[C@H]1Cc2c(ccc3c2O[C@@H]2COc4cc(OC)c(OC)cc4[C@@H]2C3=O)O1 [Rotenone] the cell viability was 11.5%.
Compound Oc1ccc(Nc2nc(-c3ccc(Cl)cc3)cs2)cc1 [SKI II] has a cell viability of 81.7%.
In the case of O=C(O)c1cc(N=Nc2ccc(S(=O)(=O)Nc3ccccn3)cc2)ccc1O [Sulfasalazine], the cell viability is reported as 43.4%.

Same assay, conditions: 10000 nM; 72 h
In the case of CCCCN1C[C@H](O)[C@@H](O)[C@H](O)[C@H]1CO [Miglustat], the cell viability is reported as 93.2%.
C=C(C=NNC(=N)N)NNC(=N)N [Mitoguazone] was tested, and the cell viability was 34.8%.
In the case of CCCCC/C=C\C/C=C\C/C=C\C/C=C\CCCCN1C(=O)C=CC1=O [N-Arachidonylmaleimide], the cell viability is reported as 103%.
CCCCCCCCCCC[C@@H](C[C@@H]1OC(=O)[C@H]1CCCCCC)OC(=O)[C@H](CC(C)C)NC=O [Orlistat] showed a cell viability of 53.3%.
In the case of COc1ccc(C(=O)Nc2c(Cl)cncc2Cl)cc1OC1CCCC1 [Piclamilast], the cell viability is reported as 104%.
